# Results from paper PMC4459817, “Vasculotide reduces endothelial permeability and tumor cell extravasation in the absence of binding to or agonistic activation of Tie2” (EMBO Molecular Medicine, 2015).
# B1: recombinant human Ang1 (rhAng1) (ligand, UniProt Q15389 16-498, looked up)
# chain: HIGCSNQRRSPENSGRRYNRIQHGQCAYTFILPEHDGNCRESTTDQYNTNALQRDAPHVEPDFSSQKLQHLEHVMENYTQWLQKLENYIVENMKSEMAQIQQNAVQNHTATMLEIGTSLLSQTAEQTRKLTDVETQVLNQTSRLEIQLLENSLSTYKLEKQLLQQTNEILKIHEKNSLLEHKILEMEGKHKEELDTLKEEKENLQGLVTRQTYIIQELEKQLNRATTNNSVLQKQQLELMDTVHNLVNLCTKEGVLLKGGKREEEKPFRDCADVYQAGFNKSGIYTIYINNMPEPKKVFCNMDVNGGGWTVIQHREDGSLDFQRGWKEYKMGFGNPSGEYWLGNEFIFAITSQRQYMLRIELMDWEGNRAYSQYDRFHIGNEKQNYRLYLKGHTGTAGKQSSLILHGADFSTKDADNDNCMCKCALMLTGGWWFDACGPSNLNGMFYTAGQNHGKLNGIKWHYFKGPSYSLRSTTMMIRPLDF
# notes: angiopoietin-1, human, recombinant; also called angiopoietin-1; source: bought: R&D Systems (named for the Boyden chamber experiments)
# What was measured:
# mouse Tie2-Fc (mTie2-Fc) = target: T1, mouse Tie2-Fc (mTie2-Fc) (Mus musculus, UniProt Q02858); experiment: SPR binding to mouse Tie2-Fc; settings: mouse Tie2-Fc (low- and high-density), 37°C, pH 7.4, Supplementary Fig S3, listed as VT
# T1 construct: Purified human or mouse Tie2-Fc (i.e., Fc-conjugated extracellular domains of Tie2); purchased R&D Systems 762-T2-100
# T1 sequence (Q02858 23-746 limits assumed): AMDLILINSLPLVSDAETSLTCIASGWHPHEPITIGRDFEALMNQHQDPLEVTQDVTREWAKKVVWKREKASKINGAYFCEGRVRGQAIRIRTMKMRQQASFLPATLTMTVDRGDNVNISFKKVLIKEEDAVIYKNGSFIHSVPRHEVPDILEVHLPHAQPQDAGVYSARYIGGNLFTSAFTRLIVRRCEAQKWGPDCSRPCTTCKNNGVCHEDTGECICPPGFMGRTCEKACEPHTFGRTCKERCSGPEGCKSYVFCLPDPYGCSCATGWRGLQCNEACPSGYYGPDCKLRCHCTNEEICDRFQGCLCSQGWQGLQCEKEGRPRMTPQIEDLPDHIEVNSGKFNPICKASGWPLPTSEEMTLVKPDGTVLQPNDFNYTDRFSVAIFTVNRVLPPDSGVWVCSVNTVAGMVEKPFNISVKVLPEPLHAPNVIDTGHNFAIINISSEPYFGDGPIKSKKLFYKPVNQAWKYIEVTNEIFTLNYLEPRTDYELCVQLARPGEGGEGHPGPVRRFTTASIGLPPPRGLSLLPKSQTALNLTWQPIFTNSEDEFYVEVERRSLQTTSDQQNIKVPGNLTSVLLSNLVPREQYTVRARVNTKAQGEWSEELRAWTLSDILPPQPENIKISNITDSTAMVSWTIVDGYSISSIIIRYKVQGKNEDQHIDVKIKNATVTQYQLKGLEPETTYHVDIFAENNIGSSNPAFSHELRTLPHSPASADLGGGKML
# Source text: To better understand the difficulties we had in observing Tie2 activation by VT, we sought to characterize the binding affinity and kinetics of VT to Tie2. Purified human or mouse Tie2-Fc (i.e., Fc-conjugated extracellular domains of Tie2) were first coupled to protein A sepharose beads for pull-down experiments (Fig9A and B) or immobilized on a Biacore CM5 sensor chip for surface plasmon resonance (SPR) experiments (Fig9C and Supplementary Fig S3). […]
# 9. Tie2 Receptor-Binding Assays
# Vasculotide (VT) was manufactured by Bachem UK Ltd. T7c (CHHHRHSF) was synthesized by Genscript (Piscataway, NJ, USA). PEG-Cys consists of a single cysteine reacted to each of the 4 arms of PEG-maleimide (Sunbright PTE-100MA, NOF Corporation, Tokyo, Japan). BowAng1 (Ang1-Fd-Fc-Fd) was made and provided by Regeneron Pharmaceuticals, Inc. (Tarrytown, NY, USA). COMP-Ang1 was purified in the Kerbel lab from serum-free culture media conditioned by an engineered CHO cell line provided by Dr. Gou Young Koh (KAIST), according to published protocols (Hwang et al, 2008).
# Recombinant human Angiopoietin-1 (rhAng1) and Vascular Endothelial Growth Factor ( rhVEGF) were […]
# purchased from R&D Systems. […]
# (structural/molecular weight control for VT), and 40 μL of supernatant (7% of residual/unbound ligand) – were similarly boiled in SDS sample buffer. […]
# Binding analysis were performed by exposure of immobilized mTie2-Fc to the analytes diluted in HBS-EP (0.01M HEPES pH 7.4, 0.15M NaCl, 3mM EDTA, 0.005% v/v Tween-20), which was supplemented with 1mg/mL carboxymethyl dextran (NSB reducer, GE Healthcare) to reduce non-specific binding to the sensor chip. […] To quantitatively determine the kinetic properties of the interaction (KD, kd, ka) and avoid mass transport limitations, mTie2-Fc and hTie2-Fc were immobilized at low density (1,000-1,200RU) onto separate flow cells of the CM5 chip using amine coupling chemistry. […] All data were analysed using BIA Evaluation Software 2.0 (GE Healthcare) to calculate kd, ka and KD using the 1:1 ligand binding model. […]
# [1] = target: T2, human Tie2-Fc (Fc-conjugated extracellular domain of Tie2) (human, UniProt Q02763 23-748); experiment: SPR
# T2 chain: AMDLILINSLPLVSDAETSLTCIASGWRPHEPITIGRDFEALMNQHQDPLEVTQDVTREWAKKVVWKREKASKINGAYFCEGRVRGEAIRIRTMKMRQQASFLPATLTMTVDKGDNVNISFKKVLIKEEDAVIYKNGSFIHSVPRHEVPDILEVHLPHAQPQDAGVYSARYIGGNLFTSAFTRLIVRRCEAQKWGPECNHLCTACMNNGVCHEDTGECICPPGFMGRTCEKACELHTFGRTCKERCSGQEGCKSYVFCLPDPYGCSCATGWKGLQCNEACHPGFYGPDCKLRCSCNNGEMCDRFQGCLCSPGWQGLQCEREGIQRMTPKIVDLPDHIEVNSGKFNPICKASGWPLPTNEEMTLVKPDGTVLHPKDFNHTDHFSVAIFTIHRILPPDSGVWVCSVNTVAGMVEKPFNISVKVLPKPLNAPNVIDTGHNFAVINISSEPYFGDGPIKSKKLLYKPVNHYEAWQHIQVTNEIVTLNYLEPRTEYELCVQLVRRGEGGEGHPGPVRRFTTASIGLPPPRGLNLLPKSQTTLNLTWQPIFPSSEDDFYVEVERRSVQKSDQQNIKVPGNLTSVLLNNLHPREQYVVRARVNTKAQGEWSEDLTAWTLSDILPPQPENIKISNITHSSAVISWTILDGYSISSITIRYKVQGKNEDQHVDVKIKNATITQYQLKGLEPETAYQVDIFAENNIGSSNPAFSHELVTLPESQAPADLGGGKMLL
Molecule,binding to Tie2-Fc (mouse Tie2-Fc (mTie2-Fc)),Kd [1] [nM]
"CHHHRHSF [Vasculotide, 4-armed maleimide-functionalized polyethylene glycol (PEG) backbone to link together four cysteine-capped T7 peptides, that is, CHHHRHSF]",no binding to Tie2-Fc was detectable,–
B1,–,0.205
